Measured values as given in ChEMBL document CHEMBL4842383 (J Med Chem, 2021).
pEC50, pIC50: −log10 of the molar value.

Key:
MC-38 = assay: Antitumor activity against mouse MC38 cells inoculated C57BL/6 mouse syngeneic model assessed as tumor growth inhibition at 100 mg/kg, po twice a day for 2 weeks by five days on/two days off schedule relative to control; format: functional; conditions: MC-38, po, 336 h, read-out: TGI
Mus musculus [1] = assay: Immunomodulatory activity in mouse MC38 cells inoculated C57BL/6 mouse syngeneic model assessed as […] in M1 like TAM (CD86+ CD11b+ F4/80+)at 100 mg/kg, po twice a day for 2 weeks by five days on/two days off schedule relative to control; format: functional, MC-38
Mus musculus [2] = assay: Immunomodulatory activity in mouse MC38 cells inoculated C57BL/6 mouse syngeneic model assessed as decrease in M2 like TAM (CD206+ CD11b F4/80+) at 100 mg/kg, po twice a day for 2 weeks by five days on/two days off schedule relative to control; format: functional, MC-38
[3] = Half life in Sprague-Dawley rat at 5 mg/kg, iv measured up to 24 hrs by LC-MS/MS analysis; format: ADME, organism-based; conditions: in vivo
[4] = Clearance in Sprague-Dawley rat at 5 mg/kg, iv measured up to 24 hrs by LC-MS/MS analysis; format: ADME, organism-based; conditions: in vivo
[5] = Volume of distribution at steady state in Sprague-Dawley rat at 5 mg/kg, iv measured up to 24 hrs by LC-MS/MS analysis; format: ADME, organism-based; conditions: in vivo, read-out: Vdss
[6] = Half life in Sprague-Dawley rat at 20 to 25 mg/kg, po measured up to 24 hrs by LC-MS/MS analysis; format: ADME, organism-based; conditions: in vivo, dose 20-25 mg/kg
[7] = Dose normalized Cmax in Sprague-Dawley rat at 20 to 25 mg/kg, po measured up to 24 hrs by LC-MS/MS analysis; format: ADME, organism-based; conditions: in vivo, dose 20-25 mg/kg
[8] = Tmax in Sprague-Dawley rat at 20 to 25 mg/kg, po measured up to 24 hrs by LC-MS/MS analysis; format: ADME, organism-based; conditions: in vivo, dose 20-25 mg/kg
[9] = Oral bioavailability in Sprague-Dawley rat at 20 to 25 mg/kg measured up to 24 hrs by LC-MS/MS analysis; format: ADME, organism-based; conditions: in vivo, dose 20-25 mg/kg
[10] = Toxicity in C57BL/6 mouse inoculated with mouse MC38 cells assessed as body weight loss at 100 mg/kg, po twice a day for 2 weeks by five days on/two days off schedule relative to control; format: organism-based, MC-38; conditions: in vivo, 336 h
[11] = target: Macrophage colony-stimulating factor 1 receptor (Homo sapiens, UniProt P07333); assay: Inhibition of human recombinant GST-CSF1R (residues L534 to C972) expressed in Sf9 insect cells using poly(Glu,Tyr) as substrate incubated for 20 mins by ATP Kinase Glo assay
Aurora kinase A = target: T1, Aurora kinase A (Homo sapiens, UniProt O14965); assay: Inhibition of recombinant GST-AURKA (residues Ser123 to Ser401) (unknown origin) expressed in Sf9 insect cells using tetra(-LRRASLG) peptide as substrate incubated for 90 mins by ATP Kinase Glo assay
T1 sequence (O14965 whole entry): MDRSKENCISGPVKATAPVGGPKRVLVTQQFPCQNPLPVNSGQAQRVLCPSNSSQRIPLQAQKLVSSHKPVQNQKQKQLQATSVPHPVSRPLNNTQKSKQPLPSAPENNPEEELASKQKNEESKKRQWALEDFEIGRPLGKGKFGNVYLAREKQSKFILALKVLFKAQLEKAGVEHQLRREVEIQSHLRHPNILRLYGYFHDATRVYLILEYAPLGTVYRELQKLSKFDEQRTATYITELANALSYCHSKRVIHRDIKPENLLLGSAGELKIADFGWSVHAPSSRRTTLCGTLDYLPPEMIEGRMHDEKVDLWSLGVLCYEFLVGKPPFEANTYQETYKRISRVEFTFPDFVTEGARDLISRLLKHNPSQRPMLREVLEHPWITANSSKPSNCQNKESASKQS

Aurora kinase B [12] = target: T2, Aurora kinase B (Homo sapiens, UniProt Q96GD4); assay: Inhibition of human recombinant full length GST-AURKB using tetra(-LRRASLG) peptide as substrate incubated for 20 mins by ATP Kinase Glo assay; parameters: species or system Sf9
BaF3 = assay: Antiproliferative activity against mouse BaF3 cells transfected with human ETV6-CSF1R assessed as reduction in cell viability measured after 72 hrs by MTS method; conditions: BaF3, 72 h
NFS-60 = assay: Antiproliferative activity against mouse NFS-60 cells transfected with human ETV6-CSF1R assessed as reduction in cell viability measured after 72 hrs by MTS method; format: functional, cell-based; conditions: NFS-60, 72 h
[13] = target: Mast/stem cell growth factor receptor Kit (Homo sapiens, UniProt P10721); assay: Inhibition of human c-Kit by Kinomescan method
[14] = target: Platelet-derived growth factor receptor alpha (Homo sapiens, UniProt P16234); assay: Inhibition of wild-type human partial length PDGFRalpha (V575 to D1002 residues) expressed in mammalian expression system by Kinomescan method
[15] = target: Platelet-derived growth factor receptor beta (Homo sapiens, UniProt P09619); assay: Inhibition of wild-type human partial length PDGFRbeta (V582 to Y1009 residues) expressed in bacterial expression system by Kinomescan method
[16] = target: Epithelial discoidin domain-containing receptor 1 (Homo sapiens, UniProt Q08345); assay: Inhibition of wild-type human partial length DDR1 (R565 to V876 residues) expressed in bacterial expression system by Kinomescan method
[17] = target: T3, Receptor-type tyrosine-protein kinase FLT3 (Homo sapiens, UniProt P36888); assay: Inhibition of wild-type human partial length FLT3 (V592 to Y969 residues) expressed in bacterial expression system by Kinomescan method
T3 sequence (P36888 whole entry): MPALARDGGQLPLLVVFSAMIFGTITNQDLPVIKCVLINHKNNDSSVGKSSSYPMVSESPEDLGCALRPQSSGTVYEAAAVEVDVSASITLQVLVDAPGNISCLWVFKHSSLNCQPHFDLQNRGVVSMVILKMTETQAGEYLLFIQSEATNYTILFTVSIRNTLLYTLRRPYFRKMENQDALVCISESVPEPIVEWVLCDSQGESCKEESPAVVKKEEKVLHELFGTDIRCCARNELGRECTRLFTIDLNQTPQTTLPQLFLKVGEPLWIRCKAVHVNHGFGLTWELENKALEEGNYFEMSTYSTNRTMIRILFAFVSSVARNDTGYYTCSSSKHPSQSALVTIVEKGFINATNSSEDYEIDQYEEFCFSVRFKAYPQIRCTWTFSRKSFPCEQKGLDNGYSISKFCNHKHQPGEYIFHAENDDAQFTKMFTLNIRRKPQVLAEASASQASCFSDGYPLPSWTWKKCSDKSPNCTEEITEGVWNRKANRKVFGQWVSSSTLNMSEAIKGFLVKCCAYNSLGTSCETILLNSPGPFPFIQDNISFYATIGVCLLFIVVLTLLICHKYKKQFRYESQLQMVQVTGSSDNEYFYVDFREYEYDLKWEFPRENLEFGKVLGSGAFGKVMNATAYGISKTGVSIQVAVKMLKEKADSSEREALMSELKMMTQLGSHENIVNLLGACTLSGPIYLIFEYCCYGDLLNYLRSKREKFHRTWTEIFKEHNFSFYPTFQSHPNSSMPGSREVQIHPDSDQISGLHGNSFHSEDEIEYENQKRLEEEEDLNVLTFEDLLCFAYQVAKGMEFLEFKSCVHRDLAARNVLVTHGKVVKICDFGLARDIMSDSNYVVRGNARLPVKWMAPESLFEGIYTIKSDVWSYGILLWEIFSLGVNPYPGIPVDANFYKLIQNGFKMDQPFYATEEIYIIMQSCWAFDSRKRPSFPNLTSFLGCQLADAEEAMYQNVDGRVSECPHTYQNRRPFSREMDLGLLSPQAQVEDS

Aurora kinase B [18] = target: T2, Aurora kinase B; assay: Inhibition of wild-type human partial length AURKB (D25 to A303 residues) expressed in mammalian expression system by Kinomescan method
[19] = target: Serine/threonine-protein kinase PAK 3 (Homo sapiens, UniProt O75914); assay: Inhibition of wild-type human full length PAK3 (M1 to R544 residues) expressed in bacterial expression system by Kinomescan method
[20] = target: Vascular endothelial growth factor receptor 2 (Homo sapiens, UniProt P35968); assay: Inhibition of wild-type human partial length VEGFR2 (R787 to P1253 residues) expressed in mammalian expression system by Kinomescan method
BMDM [21] = assay: Growth inhibition of CSF1-induced mouse BMDM cell assessed as inhibition of M2 like macrophage growth incubated for 3 days by WST-8 assay; conditions: 72 h
BMDM [22] = assay: Growth inhibition of CSF2-induced mouse BMDM cell assessed as inhibition of M1 like macrophage growth for 3 days by WST-8 assay; conditions: 72 h

T2 sequence (Q96GD4 whole entry): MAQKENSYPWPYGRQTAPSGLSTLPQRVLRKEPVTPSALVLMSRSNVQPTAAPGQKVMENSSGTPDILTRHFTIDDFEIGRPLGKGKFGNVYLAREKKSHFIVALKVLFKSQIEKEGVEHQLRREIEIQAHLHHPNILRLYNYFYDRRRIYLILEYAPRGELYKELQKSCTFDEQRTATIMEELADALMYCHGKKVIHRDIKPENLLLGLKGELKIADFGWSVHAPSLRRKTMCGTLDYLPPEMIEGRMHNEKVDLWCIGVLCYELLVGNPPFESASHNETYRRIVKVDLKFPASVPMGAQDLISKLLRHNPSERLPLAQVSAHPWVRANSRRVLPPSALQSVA
Macrophage colony-stimulating factor 1 receptor, sequence (P07333 whole entry, the tested form may be a part): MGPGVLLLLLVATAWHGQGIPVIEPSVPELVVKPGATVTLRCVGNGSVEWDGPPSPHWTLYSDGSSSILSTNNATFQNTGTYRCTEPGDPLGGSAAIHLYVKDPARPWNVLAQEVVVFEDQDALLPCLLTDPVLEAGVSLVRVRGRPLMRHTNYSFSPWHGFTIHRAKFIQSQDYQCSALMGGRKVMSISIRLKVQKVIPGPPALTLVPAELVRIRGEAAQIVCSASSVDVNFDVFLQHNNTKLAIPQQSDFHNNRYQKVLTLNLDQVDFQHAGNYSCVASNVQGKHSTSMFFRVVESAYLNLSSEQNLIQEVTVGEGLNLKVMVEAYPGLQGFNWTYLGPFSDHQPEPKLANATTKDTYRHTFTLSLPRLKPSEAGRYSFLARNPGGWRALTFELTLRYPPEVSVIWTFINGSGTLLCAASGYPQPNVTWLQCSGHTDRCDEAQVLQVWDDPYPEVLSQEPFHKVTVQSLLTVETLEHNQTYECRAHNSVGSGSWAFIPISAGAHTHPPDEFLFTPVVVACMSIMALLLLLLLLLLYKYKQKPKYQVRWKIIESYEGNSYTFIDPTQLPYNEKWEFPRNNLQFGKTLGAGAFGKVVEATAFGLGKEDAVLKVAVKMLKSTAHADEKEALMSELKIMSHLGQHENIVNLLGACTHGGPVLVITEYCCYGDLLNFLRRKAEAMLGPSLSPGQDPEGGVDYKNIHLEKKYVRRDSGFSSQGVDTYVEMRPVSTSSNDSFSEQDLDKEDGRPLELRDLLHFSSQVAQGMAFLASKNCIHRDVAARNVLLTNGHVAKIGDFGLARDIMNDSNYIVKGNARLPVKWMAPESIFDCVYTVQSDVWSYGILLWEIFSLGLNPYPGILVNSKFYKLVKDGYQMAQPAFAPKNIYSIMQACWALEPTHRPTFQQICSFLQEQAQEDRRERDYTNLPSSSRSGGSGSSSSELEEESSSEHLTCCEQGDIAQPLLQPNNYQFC
Platelet-derived growth factor receptor beta, sequence (P09619 whole entry, the tested form may be a part): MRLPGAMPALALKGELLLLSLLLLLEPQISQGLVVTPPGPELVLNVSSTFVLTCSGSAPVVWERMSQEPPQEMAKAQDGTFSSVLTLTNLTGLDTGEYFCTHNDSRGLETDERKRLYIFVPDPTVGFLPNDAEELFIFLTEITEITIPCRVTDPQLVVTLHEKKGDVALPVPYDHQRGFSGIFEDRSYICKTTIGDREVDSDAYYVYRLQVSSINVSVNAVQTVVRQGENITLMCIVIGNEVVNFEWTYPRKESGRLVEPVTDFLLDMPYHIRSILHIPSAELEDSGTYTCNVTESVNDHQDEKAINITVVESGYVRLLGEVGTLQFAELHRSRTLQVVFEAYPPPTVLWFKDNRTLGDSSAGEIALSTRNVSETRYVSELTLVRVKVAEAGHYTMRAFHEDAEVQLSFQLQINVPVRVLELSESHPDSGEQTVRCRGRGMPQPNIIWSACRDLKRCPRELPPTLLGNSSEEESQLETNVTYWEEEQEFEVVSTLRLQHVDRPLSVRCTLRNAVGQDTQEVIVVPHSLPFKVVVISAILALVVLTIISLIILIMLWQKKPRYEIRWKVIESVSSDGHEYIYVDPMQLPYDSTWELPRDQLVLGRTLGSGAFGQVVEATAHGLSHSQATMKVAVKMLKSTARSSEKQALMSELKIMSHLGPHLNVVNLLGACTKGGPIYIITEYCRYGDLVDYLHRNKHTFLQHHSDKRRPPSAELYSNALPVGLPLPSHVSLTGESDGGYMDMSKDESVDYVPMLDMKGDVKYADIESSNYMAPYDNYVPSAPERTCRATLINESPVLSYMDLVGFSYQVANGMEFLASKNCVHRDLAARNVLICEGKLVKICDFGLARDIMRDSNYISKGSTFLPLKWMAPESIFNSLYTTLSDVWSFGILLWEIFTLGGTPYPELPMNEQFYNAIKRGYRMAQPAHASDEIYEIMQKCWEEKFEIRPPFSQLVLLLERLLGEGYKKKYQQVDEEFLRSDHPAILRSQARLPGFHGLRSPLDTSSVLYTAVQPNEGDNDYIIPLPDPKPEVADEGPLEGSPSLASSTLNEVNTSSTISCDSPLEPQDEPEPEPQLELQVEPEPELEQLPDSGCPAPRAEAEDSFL
Epithelial discoidin domain-containing receptor 1, sequence (Q08345 whole entry, the tested form may be a part): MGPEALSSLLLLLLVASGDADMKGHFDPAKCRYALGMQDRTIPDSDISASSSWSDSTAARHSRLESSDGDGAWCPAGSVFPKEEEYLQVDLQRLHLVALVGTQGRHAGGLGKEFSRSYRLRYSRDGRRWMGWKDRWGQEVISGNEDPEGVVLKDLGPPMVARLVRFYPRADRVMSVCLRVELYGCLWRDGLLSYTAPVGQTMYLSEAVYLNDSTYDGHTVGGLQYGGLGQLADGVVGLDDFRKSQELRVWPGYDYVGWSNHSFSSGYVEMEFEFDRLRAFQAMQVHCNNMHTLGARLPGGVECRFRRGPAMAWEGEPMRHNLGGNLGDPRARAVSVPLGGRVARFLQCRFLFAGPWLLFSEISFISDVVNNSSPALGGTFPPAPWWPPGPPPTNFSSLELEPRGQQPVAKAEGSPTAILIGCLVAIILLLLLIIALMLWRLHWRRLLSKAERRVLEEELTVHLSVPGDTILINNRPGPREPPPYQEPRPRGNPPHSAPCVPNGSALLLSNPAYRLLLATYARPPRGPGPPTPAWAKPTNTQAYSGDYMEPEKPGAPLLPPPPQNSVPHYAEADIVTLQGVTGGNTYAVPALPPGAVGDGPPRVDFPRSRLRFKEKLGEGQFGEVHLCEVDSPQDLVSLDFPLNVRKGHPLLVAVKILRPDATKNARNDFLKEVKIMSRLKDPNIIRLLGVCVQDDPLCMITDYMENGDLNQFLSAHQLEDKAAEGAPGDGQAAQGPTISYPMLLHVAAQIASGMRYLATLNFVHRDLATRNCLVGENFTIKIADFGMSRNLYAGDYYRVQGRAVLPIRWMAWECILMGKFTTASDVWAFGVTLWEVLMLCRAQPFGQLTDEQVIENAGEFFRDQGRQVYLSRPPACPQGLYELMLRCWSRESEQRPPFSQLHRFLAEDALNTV
Serine/threonine-protein kinase PAK 3, sequence (O75914 whole entry, the tested form may be a part): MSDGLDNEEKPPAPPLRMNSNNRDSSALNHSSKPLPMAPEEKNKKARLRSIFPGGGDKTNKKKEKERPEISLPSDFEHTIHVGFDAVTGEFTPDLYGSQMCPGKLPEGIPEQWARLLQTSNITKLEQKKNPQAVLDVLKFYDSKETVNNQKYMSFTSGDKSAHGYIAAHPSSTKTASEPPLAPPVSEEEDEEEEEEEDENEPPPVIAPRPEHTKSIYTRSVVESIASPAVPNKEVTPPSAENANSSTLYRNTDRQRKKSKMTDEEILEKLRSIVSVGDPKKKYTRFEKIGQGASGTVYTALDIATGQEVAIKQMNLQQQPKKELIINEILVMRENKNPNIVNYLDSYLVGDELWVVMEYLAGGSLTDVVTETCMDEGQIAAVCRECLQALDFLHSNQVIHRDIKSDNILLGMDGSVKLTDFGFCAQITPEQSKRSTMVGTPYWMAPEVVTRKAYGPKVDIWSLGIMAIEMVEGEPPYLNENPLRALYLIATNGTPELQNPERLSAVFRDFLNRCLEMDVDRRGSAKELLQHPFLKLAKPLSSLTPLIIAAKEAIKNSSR
Platelet-derived growth factor receptor alpha, sequence (P16234 whole entry, the tested form may be a part): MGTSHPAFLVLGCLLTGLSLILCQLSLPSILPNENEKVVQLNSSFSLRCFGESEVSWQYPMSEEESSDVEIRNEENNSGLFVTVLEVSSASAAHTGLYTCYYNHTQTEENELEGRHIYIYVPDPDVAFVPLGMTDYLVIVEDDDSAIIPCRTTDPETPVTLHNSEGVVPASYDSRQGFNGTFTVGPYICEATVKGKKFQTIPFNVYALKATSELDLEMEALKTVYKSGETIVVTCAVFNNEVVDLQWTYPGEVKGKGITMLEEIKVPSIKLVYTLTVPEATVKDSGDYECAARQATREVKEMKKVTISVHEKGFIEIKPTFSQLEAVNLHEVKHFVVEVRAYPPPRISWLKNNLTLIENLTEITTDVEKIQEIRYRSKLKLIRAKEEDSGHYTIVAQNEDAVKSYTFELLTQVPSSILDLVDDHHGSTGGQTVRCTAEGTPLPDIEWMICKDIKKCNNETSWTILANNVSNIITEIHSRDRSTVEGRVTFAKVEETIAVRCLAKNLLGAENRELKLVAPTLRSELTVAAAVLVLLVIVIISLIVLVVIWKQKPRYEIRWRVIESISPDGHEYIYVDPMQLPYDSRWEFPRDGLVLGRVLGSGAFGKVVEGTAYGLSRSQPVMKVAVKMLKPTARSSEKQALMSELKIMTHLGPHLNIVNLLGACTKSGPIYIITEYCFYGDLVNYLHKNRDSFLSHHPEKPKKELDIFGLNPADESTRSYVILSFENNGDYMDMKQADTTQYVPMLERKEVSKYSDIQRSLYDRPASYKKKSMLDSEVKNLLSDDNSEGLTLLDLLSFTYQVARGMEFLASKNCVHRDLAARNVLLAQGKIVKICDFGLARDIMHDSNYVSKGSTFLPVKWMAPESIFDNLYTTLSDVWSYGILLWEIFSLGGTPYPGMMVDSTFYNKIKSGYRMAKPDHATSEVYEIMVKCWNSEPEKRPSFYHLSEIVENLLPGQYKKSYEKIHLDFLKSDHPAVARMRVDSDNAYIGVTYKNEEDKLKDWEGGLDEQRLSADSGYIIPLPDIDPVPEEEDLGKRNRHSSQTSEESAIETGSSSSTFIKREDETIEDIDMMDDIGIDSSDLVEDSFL

CN(C)c1ccc2c(Oc3ccc(NC(=O)NCc4ccc(C(F)(F)F)nc4)cc3)ncnc2c1.CS(=O)(=O)O
inhibition in vivo at 100 mg/kg (MC-38): 59%
fold change (FC) (Mus musculus [1]): 3
fold change (FC) (Mus musculus [2]): 2.5
half-life [3]: 2.4 h
clearance [4]: 8.9 mL/min/kg
Vd [5]: 1 L/kg
half-life [6]: 11.6 h
Cmax/dose [7]: 68 ng/mL
Tmax [8]: 0.5 h
bioavailability [9]: 34.9%
Activity [10]: Non-Toxic

CN(C)c1ccc2c(Oc3ccc(NC(=O)NCc4ccc(C(F)(F)F)nc4)cc3)ncnc2c1
pIC50 [11]: 7.84
pIC50 (Aurora kinase A): < 5.00
pIC50 (Aurora kinase B [12]): 5.85
pEC50 (BaF3): 7.10
pEC50 (NFS-60): 7.02
half-life [3]: 2.9 h
clearance [4]: 4.5 mL/min/kg
Vd [5]: 0.6 L/kg
half-life [6]: 8.7 h
Cmax/dose [7]: 24 ng/mL
Tmax [8]: 5.5 h
bioavailability [9]: 10%
pIC50 [13]: 8.96
pIC50 [14]: 7.28
pIC50 [15]: 7.50
pIC50 [16]: 7.22
pIC50 [17]: 7.19
pIC50 (Aurora kinase B [18]): 6.65
pIC50 [19]: < 5.05
pIC50 [20]: < 5.05
pIC50 (BMDM [21]): 7.51
pIC50 (BMDM [22]): 5.27
